# Experimental data taken from patent US20250346883A1, “DENSITY GRADIENT CHEMOSTAT FOR ADAPTED LABORATORY EVOLUTION” (priority 2022, published 2025).
# Where “and” joins values, the source holds several entries; their conditions need not be identical. Equal entries are not always repeated.
# What was measured:
# [1] = tested on: Escherichia coli MG1655 ancestor and MICALE-grown samples; test: Chaotropic stress adaptation analysis (OD600 growth in increasing MgCl2); assay type: cell-based
# Protocol: (§1) The adaptation analysis (step 205) is a qualitative test to compare the ability to grow in the presence of the stressor between the ancestor and MICALE-grown samples. Turbid broth cultures from isolated colonies were diluted 1:100 in sterile broth with increasing amounts of stressor. These dilutions were vortexed before pipetting 0.2 mL in triplicate onto a 96-well plate. The microplate reader then measured OD600 every 15 minutes over the span of four days while incubating the plate at 37° C. with the plate lid on. […] Referring to FIG. 3B, for each OD600 curve, the maximum rate of growth over a span of 75 minutes is designated the exponential growth rate, u, and the subtracted difference between the maximum and minimum OD600 measurements, AOD, is designated the cell proliferation. The high salinity and chaotropic stress adaptation analyses were completed once whereas the antibiotic analysis was repeated for two total trials. Growth metrics were extrapolated from the growth curves (described below) for numerical comparisons between samples and to fit a logistic dose-response curve of each sample's response in a stressor. For each sample, a logistic curve was fit to the triplicate relative exponential growth rate or relative cell proliferation values across all media types (FIG. 3C). This curve represents a sample's relative response to increasing doses of a stressor, known as a dose-response curve. The value for ED50 is the effective dose of the stressor at which a 50% decrease in the maximal response (100%) is observed.
# For the chaotropic stress run, samples from both two weeks and four weeks into the run were selected for analysis (Table 5, below). The samples, including the ancestor, were cultured in media with 0, 200, and 250 mM MgCl2. The IL samples were not plated on 200 mM MgCl2 plates due to limited resources. The ancestor was grown on plates with the same MgCl2 concentration as the samples to see if the culturing process was causing genetic change significant enough to affect the growth phenotypes observed during the adaptation analysis. Cultures were diluted into media with 0, 200, 250 and 300 mM MgCl2 then pipetted onto the 96-well-plate to start the four-day analysis.
# (§2) To statistically compare growth between samples, two parameters were extracted from the OD600 curves resulting from the adaptation analysis: relative exponential growth rate and relative cell proliferation (FIG. 3B). To find the exponential growth rate, μ, growth curves are normally fit to a standard sigmoidal function, such as the Gompertz model. However, these OD600 curves were too irregular to be well fit with a standard function. Instead, a rolling regression was fitted onto natural log transformed OD600 curves to produce linear regression lines between six measurements at a time (75 total minutes), shifting by 1 measurement, over the curve. The exponential growth rate from the maximum slope obtained by the rolling regression is 0.44 hr^−1. The darker lines on the upper right section of the curve represent where the maximum slope occurs. (FIG. 4).
# (§3) The exponential growth rate was determined to be the maximum slope of any of the regression lines, denoted by μstress for growth curves in media with stressor and μblank for that in blank LB media [Equation 1]. Any slope maxima that appeared to be due from anomalies in the data, such as a quick jump in OD600 after biofilm formation, were filtered out. This ensured that the maximum slope occurred during the time that visually represented exponential growth (near the start of the curve). The triplicate μblank calculations were averaged to obtain the values representing that sample's growth in media without stress, μcontrol [Equation 2]. The percent relative exponential growth rate was obtained by dividing each μ by the μcontrol, then multiplying by 100 [Equation 3]. Finally, the three relative exponential growth rate values for each sample and media type were averaged [Equation 4]. […]
# [2] = tested on: Escherichia coli MG1655 ancestor and MICALE-grown samples; test: High salinity adaptation analysis (OD600 growth in increasing NaCl); assay type: cell-based
# Protocol: as §1
# The samples chosen from the high salinity run were frozen stocks of the PL, SL, and BL samples that had been taken at the end of the run (two weeks) and one SL sample from the first 25 hours (Table 2, below). The samples used in the adaptation analysis had been in media with a NaCl concentration of 60 ppt, and the ancestor was cultured on blank LB media. The samples were diluted into LB media with 5, 45, 60, 75, and 90 ppt NaCl then plated on the 96-well plate.
# as §2, §3
# [3] = tested on: Escherichia coli MG1655 ancestor and MICALE-grown samples; test: Antibiotic stress adaptation analysis (OD600 growth in increasing ciprofloxacin); assay type: cell-based; settings: for relative cell proliferation / relative exponential growth rate: 10×MIC
# Protocol: as §1
# The samples chosen for the antibiotic-stress adaptation analysis were from the end of the antibiotic stress MICALE run, sampled on the 14th day (Table 7, below). Samples were cultured grown in media with no antibiotic, 0.6 μg/mL ciprofloxacin (10×MIC,) and 15 μg/mL ciprofloxacin ([…]) were transferred into 5 mL of LB broth with the same amount of antibiotic. The only exception is the BL sample was grown in 0.6 μg/mL ciprofloxacin then transferred to LB broth with 15 μg/mL ciprofloxacin. Once turbid, the broth cultures were diluted into media with no antibiotic, 0.6 μg/mL, 6 μg/mL, and 60 μg/mL ciprofloxacin then pipetted onto a 96-well plate and placed in the microplate reader to start the analysis. A portion of the broth cultures used for the analysis were frozen in glycerol. For a repeat trial of the adaptation analysis, these frozen stocks were revived in broth media matching the level of antibiotic in which they had originally been cultured.
# as §2
# The exponential growth rate was determined to be the maximum slope of any of the regression lines, denoted by μstress for growth curves in media with stressor and μblank for that in blank LB media [Equation 1]. Any slope maxima that appeared to be due from anomalies in the data, such as a quick jump in OD600 after biofilm formation, were filtered out. This ensured that the maximum slope occurred during the time that visually represented exponential growth (near the start of the curve). […]
# Escherichia coli = settings: cited from earlier work
# [4] = sample PL-000-Col1, 200 mM MgCl2
compound,measurement,setting,value
"[Cl-].[Cl-].[Mg+2] [MgCl2, magnesium chloride]",growth in 300 mM MgCl2,"[1]; all samples incl. ancestor, 300 mM MgCl2",No samples showed signs of growth
same,average exponential growth rate (relative),"[1]; sample Anc-000, 200 mM MgCl2",41.7%
same,relative cell proliferation,"[1]; sample Anc-000, 200 mM MgCl2",74.0%
same,growth in 250 mM MgCl2,"[1]; sample Anc-000, 250 mM MgCl2",showed signs of growth
same,average exponential growth rate (relative),"[1]; sample Anc-200, 200 mM MgCl2",32.0%
same,relative cell proliferation,"[1]; sample Anc-200, 200 mM MgCl2",94.0%
same,average exponential growth rate (relative),"[1]; sample IL-000, 200 mM MgCl2",33.5%
same,relative cell proliferation,"[1]; sample IL-000, 200 mM MgCl2",86.5%
same,maximum OD600,"[1]; sample PL-000-Col1, one triplicate well, 200 mM MgCl2",1.479
same,average exponential growth rate (relative),[1]; [4],54.0%
same,relative cell proliferation,[1]; [4],130% and 130.3%
same,growth in 250 mM MgCl2,"[1]; sample PL-000-Col1, 250 mM MgCl2 (one well)",showed signs of growth
same,relative cell proliferation,"[1]; sample PL-000-Col2, 200 mM MgCl2 (considered as no growth)",less than 5%
same,growth in media with MgCl2,"[1]; sample PL-000-Col2, any media with MgCl2",could not grow
same,average exponential growth rate (relative),"[1]; sample PL-200, 200 mM MgCl2",26.5%
same,relative cell proliferation,"[1]; sample PL-200, 200 mM MgCl2",129.3%
same,average exponential growth rate (relative),"[1]; sample SL-W2, 200 mM MgCl2",22.2%
same,highest average OD600,"[1]; sample SL-W2, 200 mM MgCl2",1.399
same,relative cell proliferation,"[1]; sample SL-W2, 200 mM MgCl2",140.8%
same,average exponential growth rate (relative),"[1]; sample SL-W4, 200 mM MgCl2",42.3%
same,relative cell proliferation,"[1]; sample SL-W4, 200 mM MgCl2",102.2%
"[Cl-].[Na+] [NaCl, sodium chloride]",decrease of exponential growth rate from 60 to 75 ppt NaCl,[2]; sample Ancestor,22.9%
same,relative growth rate,"[2]; sample Ancestor, 75 ppt NaCl",15.5%
same,average cell proliferation,"[2]; sample Ancestor, 90 ppt NaCl (no growth)",less than 5%
same,increase of exponential growth rate from 60 to 75 ppt NaCl,[2]; sample BL,7.7%
same,relative growth rate,"[2]; sample BL, 60 ppt NaCl",32.5%
same,relative growth rate,"[2]; sample BL, 75 ppt NaCl",40.2%
same,relative growth rate,"[2]; sample BL, 90 ppt NaCl",42.8%
same,decrease of exponential growth rate from 60 to 75 ppt NaCl,[2]; sample PL,35.0%
same,relative growth rate,"[2]; sample PL, 75 ppt NaCl",18.3%
same,relative growth rate,"[2]; sample PL, 90 ppt NaCl",25.9%
same,decrease of exponential growth rate from 60 to 75 ppt NaCl,[2]; sample SLearly,28.9%
same,average cell proliferation,"[2]; sample SLearly, 75 and 90 ppt NaCl (no growth)",less than 5%
same,relative growth rate,"[2]; sample SLearly, 75 ppt NaCl",3.1%
same,decrease of exponential growth rate from 60 to 75 ppt NaCl,[2]; sample SLfinal,7.8%
same,relative growth rate,"[2]; sample SLfinal, 75 ppt NaCl",19.7%
same,relative growth rate,"[2]; sample SLfinal, 90 ppt NaCl",27.0%
same,average cell proliferation,"[2]; three samples taken at the end of the run (PL, SLfinal, BL), every level of salinity (5-90 ppt NaCl)",over 5%
O=C(O)c1cn(C2CC2)c2cc(N3CCNCC3)c(F)cc2c1=O [ciprofloxacin],growth in media with ciprofloxacin,"[3]; Ancestor, any media with ciprofloxacin (10-1000×MIC), both trials",did not show signs of growth
same,concentration at which cell proliferation value of less than 5% was reached (no growth),"[3]; Trial 1, Ancestor",10 ×MIC
same,concentration at which cell proliferation value of less than 5% was reached (no growth),"[3]; Trial 1, sample BL-15",1000 ×MIC
same,concentration at which cell proliferation value of less than 5% was reached (no growth),"[3]; Trial 1, sample IL-00",100 ×MIC
same,average cell proliferation,"[3]; Trial 1, sample IL-00, 100×MIC",0.6%
same,average cell proliferation,"[3]; Trial 1, sample IL-00, 1000×MIC (likely evaporation, not growth)",5.3%
same,concentration at which cell proliferation value of less than 5% was reached (no growth),"[3]; Trial 1, sample IL-15-Col1",1000 ×MIC
same,relative growth rate,"[3]; Trial 1, sample IL-15-Col1, 100×MIC",54.4%
same,concentration at which cell proliferation value of less than 5% was reached (no growth),"[3]; Trial 1, sample IL-15-Col2",1000 ×MIC
same,relative cell proliferation,"[3]; Trial 1, sample IL-15-Col2",61.5%
same,relative exponential growth rate,"[3]; Trial 1, sample IL-15-Col2",107.5%
same,concentration at which cell proliferation value of less than 5% was reached (no growth),"[3]; Trial 1, sample PL-00",10 ×MIC
same,concentration at which cell proliferation value of less than 5% was reached (no growth),"[3]; Trial 1, sample PL-0.6",100 ×MIC
same,cell proliferation values,"[3]; Trial 1, sample SL-15, all concentrations (10-1000×MIC)",over 5%
same,concentration at which average cell proliferation lower than 5% was reached,"[3]; Trial 2, Anc",10 ×MIC
same,relative exponential growth rate,"[3]; Trial 2, sample BL-15",97.2%
same,relative growth rate,"[3]; Trial 2, sample BL-15, 100×MIC",66.6%
same,concentration at which average cell proliferation lower than 5% was reached,"[3]; Trial 2, sample IL-00",100 ×MIC
same,relative exponential growth rate,"[3]; Trial 2, sample IL-15-Col1",90.5%
same,concentration at which average cell proliferation lower than 5% was reached,"[3]; Trial 2, sample IL-15-Col2",1000 ×MIC
same,relative cell proliferation,"[3]; Trial 2, sample IL-15-Col2",90.9%
same,relative exponential growth rate,"[3]; Trial 2, sample IL-15-Col2",101.6%
same,concentration at which average cell proliferation lower than 5% was reached,"[3]; Trial 2, sample PL-00",100 ×MIC
same,concentration at which average cell proliferation lower than 5% was reached,"[3]; Trial 2, sample PL-0.6",100 ×MIC
same,relative exponential growth rate,"[3]; Trial 2, sample SL-15",90.6%
same,average cell proliferation,"[3]; Trial 2, samples IL-15-Col1, SL-15 and BL-15, 1000×MIC (growth in all levels tested)",above 5%
same,growth (OD600 curves) in ciprofloxacin,"[3]; samples IL-15-Col1, IL-15-Col2, SL-15 and BL-15, both trials",had OD600 curves in ciprofloxacin up to 100×MIC
same,"growth in 100 or 1,000×MIC","[3]; samples PL-00, PL-0.6 and IL-00, overall, both trials",could not grow
same,"MIC, literature's value",Escherichia coli,0.05 µg/mL
